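The compound was tested at five concentrations on cells cultured in 96-well plates, with a 48-hour exposure period. Here, GI50 denotes the concentration required for 50% inhibition of growth. The concentration for full growth arrest is given as TGI.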
How the values were obtained:
Experiment in all cases: NCI tumour cell line growth inhibition, 48 h
A498 renal = test system: A498 renal
HCT-116 colon = test system: HCT-116 colon
MALME-3M melanoma = test system: MALME-3M melanoma
MCF7 breast = test system: MCF7 breast
MDA-MB-435 = test system: MDA-MB-435
OVCAR-4 ovarian = test system: OVCAR-4 ovarian
RXF 393 renal = test system: RXF 393 renal
SN12C renal = test system: SN12C renal
SNB-19 CNS = test system: SNB-19 CNS
HOP-92 NSCLC = test system: HOP-92 NSCLC

COc1cc(C)cc2c1OC(c1ccccc1)CC2=O (configuration not stated)
GI50 (A498 renal): > 100 µM
TGI (A498 renal): > 100 µM
GI50 (HCT-116 colon): > 100 µM
TGI (HCT-116 colon): > 100 µM
GI50 (MALME-3M melanoma): > 100 µM
TGI (MALME-3M melanoma): > 100 µM
GI50 (MCF7 breast): > 100 µM
TGI (MCF7 breast): > 100 µM
GI50 (MDA-MB-435): > 100 µM
TGI (MDA-MB-435): > 100 µM
GI50 (OVCAR-4 ovarian): > 100 µM
TGI (OVCAR-4 ovarian): > 100 µM
GI50 (RXF 393 renal): > 100 µM
TGI (RXF 393 renal): > 100 µM
GI50 (SN12C renal): > 100 µM
TGI (SN12C renal): > 100 µM
GI50 (SNB-19 CNS): > 100 µM
TGI (SNB-19 CNS): > 100 µM

CCOC(=O)C1CCC/C1=N\N=C(N)N (configuration not stated) (tested in a mixture with another compound)
TGI (A498 renal): > 100 µM
TGI (HCT-116 colon): > 100 µM
TGI (MALME-3M melanoma): > 100 µM
TGI (MCF7 breast): > 100 µM
TGI (MDA-MB-435): > 100 µM
TGI (OVCAR-4 ovarian): > 100 µM
TGI (RXF 393 renal): > 100 µM
TGI (SN12C renal): > 100 µM
TGI (SNB-19 CNS): > 100 µM

CCCCCCCCCCCCCCCCC(C(=O)O)C(O)(CC(=O)O)C(=O)O (configuration not stated)
TGI (A498 renal): 47.6 µM
TGI (HCT-116 colon): 36.3 µM
TGI (MALME-3M melanoma): > 100 µM
TGI (MCF7 breast): > 100 µM
TGI (MDA-MB-435): > 100 µM
TGI (RXF 393 renal): 53.4 µM
TGI (SN12C renal): 53.6 µM
TGI (SNB-19 CNS): 79.3 µM

CCCCCCn1c(-c2ccc(C(=O)O/N=C(\N)c3ccc(OC)cc3)cc2)nc(-c2ccccc2)c1-c1ccccc1
GI50 (HCT-116 colon): 1.4 µM
TGI (HCT-116 colon): 2.89 µM
GI50 (HOP-92 NSCLC): 1.12 µM
TGI (HOP-92 NSCLC): 2.61 µM
GI50 (MALME-3M melanoma): 1.75 µM
TGI (MALME-3M melanoma): 3.55 µM
GI50 (MCF7 breast): 1.61 µM
TGI (MCF7 breast): 3.72 µM
GI50 (MDA-MB-435): 1.66 µM
TGI (MDA-MB-435): 3.2 µM
GI50 (RXF 393 renal): 1.62 µM
TGI (RXF 393 renal): 3.17 µM
GI50 (SN12C renal): 1.62 µM
TGI (SN12C renal): 3.26 µM
GI50 (SNB-19 CNS): 1.85 µM
TGI (SNB-19 CNS): 4.64 µM

Cc1cccc(C(C)(C)C)c1NC(=O)CC1C(=O)Nc2ccccc2S1=O (configuration not stated)
TGI (HCT-116 colon): > 100 µM
TGI (HOP-92 NSCLC): > 100 µM
TGI (MALME-3M melanoma): > 100 µM
TGI (OVCAR-4 ovarian): 80.1 µM
TGI (SN12C renal): > 100 µM
TGI (SNB-19 CNS): > 100 µM

Cc1cccc(C(C)O)n1 (configuration not stated)
TGI (A498 renal): > 100 µM
TGI (HCT-116 colon): > 100 µM
TGI (MALME-3M melanoma): > 100 µM
TGI (MCF7 breast): > 100 µM
TGI (OVCAR-4 ovarian): > 100 µM
TGI (SN12C renal): > 100 µM
TGI (SNB-19 CNS): > 100 µM

N=C(c1ccccc1)N1CCCCC1
TGI (HCT-116 colon): > 100 µM
TGI (MALME-3M melanoma): > 100 µM
TGI (OVCAR-4 ovarian): > 100 µM
TGI (RXF 393 renal): > 100 µM
TGI (SN12C renal): > 100 µM
TGI (SNB-19 CNS): > 100 µM

[N-]=[N+]=Nc1ncc(-c2ccc(C(F)(F)F)cc2)c(NC2CCCCCC2)n1
GI50 (A498 renal): > 10 µM
TGI (A498 renal): > 10 µM
GI50 (HCT-116 colon): > 10 µM
TGI (HCT-116 colon): > 10 µM
GI50 (MALME-3M melanoma): > 10 µM
TGI (MALME-3M melanoma): > 10 µM
GI50 (MCF7 breast): > 10 µM
TGI (MCF7 breast): > 10 µM
GI50 (MDA-MB-435): > 10 µM
TGI (MDA-MB-435): > 10 µM
GI50 (OVCAR-4 ovarian): > 10 µM
TGI (OVCAR-4 ovarian): > 10 µM
GI50 (RXF 393 renal): > 10 µM
TGI (RXF 393 renal): > 10 µM
GI50 (SN12C renal): > 10 µM
TGI (SN12C renal): > 10 µM
GI50 (SNB-19 CNS): > 10 µM
TGI (SNB-19 CNS): > 10 µM

CC(C)=CC(=O)Cc1nc2ccccc2[nH]c1=O
TGI (A498 renal): > 100 µM
TGI (HCT-116 colon): > 100 µM
TGI (HOP-92 NSCLC): 68 µM
TGI (MALME-3M melanoma): > 100 µM
TGI (OVCAR-4 ovarian): > 100 µM
TGI (RXF 393 renal): 79.2 µM
TGI (SN12C renal): > 100 µM
TGI (SNB-19 CNS): > 100 µM

C/C(=N\NC(N)=S)c1ccc(/C(C)=N/NC(N)=S)cc1
TGI (A498 renal): > 100 µM
TGI (HCT-116 colon): > 100 µM
TGI (HOP-92 NSCLC): > 100 µM
TGI (MALME-3M melanoma): > 100 µM
TGI (RXF 393 renal): > 100 µM
TGI (SN12C renal): > 100 µM
TGI (SNB-19 CNS): > 100 µM

O=[N+]([O-])c1ccc(Cc2nc3ccccc3s2)cc1
TGI (A498 renal): > 100 µM
TGI (HCT-116 colon): > 100 µM
TGI (HOP-92 NSCLC): > 100 µM
TGI (MALME-3M melanoma): > 100 µM
TGI (OVCAR-4 ovarian): > 100 µM
TGI (RXF 393 renal): > 100 µM
TGI (SN12C renal): > 100 µM
TGI (SNB-19 CNS): > 100 µM

C/C(=N\NC(N)=S)c1ccc2c(c1)OCO2
TGI (A498 renal): > 100 µM
TGI (HCT-116 colon): > 100 µM
TGI (HOP-92 NSCLC): > 100 µM
TGI (MALME-3M melanoma): > 100 µM
TGI (RXF 393 renal): > 100 µM
TGI (SN12C renal): > 100 µM
TGI (SNB-19 CNS): > 100 µM

COc1ccc(C2(CN(C)C)COc3cc(OC)c(OC)cc3C2=O)cc1OC (configuration not stated)
TGI (A498 renal): > 100 µM
TGI (HCT-116 colon): 30.3 µM
TGI (HOP-92 NSCLC): > 100 µM
TGI (MALME-3M melanoma): > 100 µM
TGI (OVCAR-4 ovarian): > 100 µM
TGI (RXF 393 renal): 79.2 µM
TGI (SN12C renal): > 100 µM
TGI (SNB-19 CNS): > 100 µM

Clc1ccc(C2=Nc3ccccc3SC(c3ccc(Cl)c(Cl)c3)C2)c(Cl)c1 (configuration not stated)
TGI (A498 renal): 37.4 µM
TGI (HCT-116 colon): 23.4 µM
TGI (HOP-92 NSCLC): 30.1 µM
TGI (MALME-3M melanoma): 29.9 µM
TGI (OVCAR-4 ovarian): 36.6 µM
TGI (RXF 393 renal): 30.5 µM
TGI (SN12C renal): 33.1 µM
TGI (SNB-19 CNS): 40 µM

CCOC(=O)c1cc2c(cc1Cl)SC(N(c1ccc(F)cc1)S(=O)(=O)c1ccc(OC)cc1)=NS2(=O)=O
GI50 (A498 renal): 23 µM
TGI (A498 renal): 45.9 µM
GI50 (HCT-116 colon): 17.1 µM
TGI (HCT-116 colon): 32 µM
GI50 (HOP-92 NSCLC): 4.81 µM
TGI (HOP-92 NSCLC): 19.2 µM
GI50 (MALME-3M melanoma): 14.9 µM
TGI (MALME-3M melanoma): 32.8 µM
GI50 (MCF7 breast): 11.8 µM
TGI (MCF7 breast): 25.4 µM
GI50 (MDA-MB-435): 14.8 µM
TGI (MDA-MB-435): 44.7 µM
GI50 (OVCAR-4 ovarian): 14.9 µM
TGI (OVCAR-4 ovarian): 39.5 µM
GI50 (SN12C renal): 19.3 µM
TGI (SN12C renal): 50 µM
GI50 (SNB-19 CNS): 18.6 µM
TGI (SNB-19 CNS): 51.2 µM

O=S(=O)(O)C(F)(F)C(F)(F)C(F)(F)C(F)(F)F
TGI (A498 renal): > 100 µM
TGI (HCT-116 colon): > 100 µM
TGI (HOP-92 NSCLC): > 100 µM
TGI (MALME-3M melanoma): > 100 µM
TGI (OVCAR-4 ovarian): > 100 µM
TGI (RXF 393 renal): > 100 µM
TGI (SN12C renal): > 100 µM
TGI (SNB-19 CNS): > 100 µM

Cc1cc2c(C(C)C)c(O)c(O)c3coc(/c1=c1/c(C)cc4c(C(C)C)c(=O)c(=O)c5coc1c45)c32
TGI (A498 renal): 24.8 µM
TGI (HCT-116 colon): 10.8 µM
TGI (HOP-92 NSCLC): 7.11 µM
TGI (MALME-3M melanoma): 29.1 µM
TGI (OVCAR-4 ovarian): 22.8 µM
TGI (RXF 393 renal): 23.1 µM
TGI (SN12C renal): 23.7 µM
TGI (SNB-19 CNS): 15.6 µM

COc1ccc(-c2ccc(/C=N/n3cn[nH]c3=S)o2)c([N+](=O)[O-])c1
GI50 (A498 renal): 1.35 µM
TGI (A498 renal): 10.3 µM
GI50 (HCT-116 colon): 29.6 µM
TGI (HCT-116 colon): 94.4 µM
GI50 (MALME-3M melanoma): 23.8 µM
TGI (MALME-3M melanoma): > 100 µM
GI50 (MCF7 breast): 25.4 µM
TGI (MCF7 breast): 89.1 µM
GI50 (MDA-MB-435): 19.8 µM
TGI (MDA-MB-435): 44.8 µM
GI50 (OVCAR-4 ovarian): 82.9 µM
TGI (OVCAR-4 ovarian): > 100 µM
GI50 (RXF 393 renal): 32.2 µM
TGI (RXF 393 renal): > 100 µM
GI50 (SN12C renal): 59.1 µM
TGI (SN12C renal): > 100 µM
GI50 (SNB-19 CNS): 63.2 µM
TGI (SNB-19 CNS): > 100 µM

COc1ccc(Cl)cc1N1C(=O)C(Cl)=C(Nc2cccc(O)c2)C1=O
GI50 (HCT-116 colon): 11.8 µM
TGI (HCT-116 colon): 24.9 µM
GI50 (MALME-3M melanoma): 14.5 µM
TGI (MALME-3M melanoma): 50.4 µM
GI50 (MCF7 breast): 19.2 µM
TGI (MCF7 breast): 41.5 µM
GI50 (MDA-MB-435): 24.6 µM
TGI (MDA-MB-435): 62.8 µM
GI50 (OVCAR-4 ovarian): 16.7 µM
TGI (OVCAR-4 ovarian): 40 µM
GI50 (RXF 393 renal): 7.36 µM
TGI (RXF 393 renal): 29 µM
GI50 (SN12C renal): 14.7 µM
TGI (SN12C renal): 29.8 µM
GI50 (SNB-19 CNS): 30.2 µM
TGI (SNB-19 CNS): > 100 µM
